Reference: patent US11911417B2, “Nerve growth promoter and method for producing same, internal preparation, medium additive, cell dilution additive, medium, cell dilution, antioxidant and method for producing same, external preparation, and wound treatment agent and method for producing same” (LAIMU CORPORATION, priority 2016, dated 2024)

Experiment: radical trapping test (ABTS radical cations)
Conditions: 20 μM, 5 to 120 minutes, FIG. 5
Description: The antioxidant 1 (freeze-dried powder of protease degradation product) produced was evaluated for the radical trapping activity against ABTS radical cations (unnatural model radical), according to the spectrophotometric method described in Biol. Pharm. Bull., 29, 766-771 (2006). Specifically, the antioxidant 1 was added to 3 mL of a reaction solution containing ABTS radical cations to be a final concentration of 300 μg/mL, and at the time after 5 minutes, 15 minutes, 30 minutes, 60 minutes and 120 minutes, the residual ratio of the ABTS radical cations was determined. For comparison, a system added with ascorbic acid or arbutin in an amount of 20 μM each in place of the antioxidant 1, and a system added with water in the same amount as that of the antioxidant 1 (control) were tested in the same manner.

Row | Compound | course of the radical residual ratio with the lapse of time
1 | OC[C@H]1O[C@@H](Oc2ccc(O)cc2)[C@H](O)[C@@H](O)[C@@H]1O [arbutin] | did not change after further lapse of time
2 | O=C1O[C@H]([C@@H](O)CO)C(O)=C1O [ascorbic acid] | did not change after further lapse of time
